{"source": "patent US20060069152A1", "about": "“Crystalline mycophenolate sodium” (priority 2004, published 2006)", "key": {"[1]": {"assay": "Hygroscopicity: crystal forms exposed to different levels of humidity for one week, then analysed by TGA and XRD", "assay_type": "physicochemical", "details": "for LOD(%): one week, TGA", "procedure": "The hygroscopicity of monosodium mycophenolate crystal forms M1, M2, M3 and disodium mycophenolate crystal forms D1 and D1±D2 were also investigated. Form M1, M2, M3, D1 and D1±D2 were exposed to different level of humidity for one week and after equilibrium they were analysed by TGA and XRD for water content and crystal structure. Table 5 summarizes the results:\n(§1) ARL X-ray powder diffractometer model X′TRA-030, Peltier detector, round standard aluminum sample holder with round zero background quartz plate was used. Scanning parameters: Range: 2-40 deg. 2 θ, continuous Scan, Rate: 3 deg./min. The accuracy of peak positions is defined as ±/−0.2 degrees due to experimental differences like instrumentations, sample preparations etc.\n• TGA/SDTA 851^e, Mettler Toledo, Sample weight 7-15 mg. • Heating rate: 10° C./min., In N2 stream: flow rate=50 ml/min • Scan range: 30-250° C. Microscope\n200 mg of each of the following samples: crystal Form M2, crystal Form M3 and crystal Form D1 were put at room temperature into a hygroscopicity chamber containing 100% relative humidity for one week. After one week they were measured again by XRD to determine their crystal forms."}, "[2]": {"assay": "Crystal form transformation by heating in an oven at atmospheric pressure, XRD before and after", "assay_type": "physicochemical", "details": "for Crystal form after heating (XRD): 30 min., atmospheric pressure", "procedure": "Representatives of all monosodium and disodium mycophenolate crystal forms, M1, M2, M1±M3, D1 and D1±D2 were heated in an oven at atmospheric pressure at 130° C. and 170° C. for 30 minutes. The samples were analyzed by XRD before and after heating.\nas §1\n200 mg of a mixture of Forms M1±M3 as identified by XRD, was put into an oven in a glass weighing bottle at 170° C. for 0.5 h. Then it was put into a desiccator and allowed to cool to room temperature. […] Transformation of M2 to M1, M3 to M1 and D1 to D2 by water vapors absorption"}}, "note": "Read-outs that look alike come from different tables or passages of the source."}
{"molecule": "COc1c(C)c2c(c([O-])c1C/C=C(\\C)CCC(=O)[O-])C(=O)OC2.[Na+].[Na+]", "note": "[D1 + D2, disodium mycophenolate]", "values": [{"measurement": "LOD(%)", "setting": "[1]; 20% RH", "value": 10.2, "unit": "%"}, {"measurement": "LOD(%)", "setting": "[1]; 40% RH", "value": 10.3, "unit": "%"}, {"measurement": "LOD(%)", "setting": "[1]; 80% RH", "value": 16.9, "unit": "%"}, {"measurement": "LOD(%)", "setting": "[1]; 100% RH", "value": 42.1, "unit": "%"}]}
{"molecule": "COc1c(C)c2c(c([O-])c1C/C=C(\\C)CCC(=O)[O-])C(=O)OC2.[Na+].[Na+]", "note": "[Form D1, disodium mycophenolate]", "values": [{"measurement": "LOD(%)", "setting": "[1]; 40% RH, listed as D1", "value": 2.17, "unit": "%"}, {"measurement": "LOD(%)", "setting": "[1]; 60% RH", "value": 11.64, "unit": "%"}, {"measurement": "LOD(%)", "setting": "[1]; 80% RH, listed as D1", "value": 17.20, "unit": "%"}, {"measurement": "LOD(%)", "setting": "[1]; 100% RH, listed as D1", "value": 31.87, "unit": "%"}, {"measurement": "relative stability of the form at high temperature", "setting": "[2]", "value": "the most stable forms at high temperature"}]}
{"molecule": "COc1c(C)c2c(c([O-])c1C/C=C(\\C)CCC(=O)[O-])C(=O)OC2.[Na+].[Na+]", "note": "[Form D2, disodium mycophenolate]", "values": [{"measurement": "relative stability of the form at high relative humidity", "setting": "[1]; room temperature, high relative humidity", "value": "the most stable form at room temperature, at high relative humidity"}]}
{"molecule": "COc1c(C)c2c(c(O)c1C/C=C(\\C)CCC(=O)O)C(=O)OC2", "note": "[Form M1, mycophenolate sodium]", "values": [{"measurement": "relative stability of the form at high relative humidity", "setting": "[1]", "value": "the most stable form at room temperature, at high relative humidity"}]}
{"molecule": "COc1c(C)c2c(c(O)c1C/C=C(\\C)CCC(=O)O)C(=O)OC2", "note": "[Form M2, mycophenolate sodium]", "values": [{"measurement": "relative stability of the form at high temperature", "setting": "[2]; heating at 130° C. and 170° C.", "value": "the most stable forms at high temperature"}]}
{"molecule": "COc1c(C)c2c(c(O)c1C/C=C(\\C)CCC(=O)[O-])C(=O)OC2.[Na+]", "note": "[M1 + M3, mycophenolate sodium]", "values": [{"measurement": "Crystal form after heating (XRD)", "setting": "[2]; 130° C.", "value": "M3 > Ml"}, {"measurement": "Crystal form after heating (XRD)", "setting": "[2]; 170° C.", "value": "Form M2"}]}
{"molecule": "COc1c(C)c2c(c([O-])c1C/C=C(\\C)CCC(=O)[O-])C(=O)OC2.[Na+].[Na+]", "note": "[disodium mycophenolate]", "values": [{"measurement": "equilibrium water content", "setting": "[1]; after humidity exposure", "value": "about 17%"}]}
